Reference: US9994865B2, “PEG-Prom mediated surface expression of avidin/streptavidin” (The Johns Hopkins University, priority 2013, dated 2018)

Legend:
[1] = test system: avidin-expressing and non-expressing tumor cells; conditions: expected outcome; LD50 against expressing vs. non-expressing cells
Excerpt: The LD50 against avidin-expressing and non-expressing tumor cells of each will be evaluated, in vitro. The maximum tolerated dose and anti-tumor efficacy of each will also be evaluated in PCa models. […] Upon necropsy, tumor xenografts will be pathologically analyzed to evaluate cell killing. […] Tumor size will be measured with calipers, or with BLI in the case of g- or fLuc-expressing cells.

tumors and metastases = conditions: prior studies, adenovirus-based oncolytic gene delivery, nude mice; cited from earlier work

Molecule | specificity of cell killing to avidin expressing cells [1] | effect on tumors and metastases (tumors and metastases)
^90Y-CHX-A-DTPA-biotin [^90Y conjugate] | less specific to avidin expressing cells | –
^213Bi-CHX-A-DTPA-biotin [^213Bi conjugate] | highly specific to expressing cells | –
MDA-7/IL-24: melanoma differentiation associated gene-7/Interleukin-24, immunomodulatory cytokine, delivered by adenovirus (protein, UniProt Q13007 52-206, looked up, adenovirus-delivered, melanoma differentiation associated gene-7/Interleukin-24, immunomodulatory cytokine, delivered by adenovirus) Interleukin-24: QEFHFGPCQVKGVVPQKLWEAFWAVKDTMQAQDNITSARLLQQEVLQNVSDAESCYLVHTLLEFYLKTVFKNYHNRTVEVRTLKSFSTLANNFVLIVSQLQPSQENEMFSIRDSAHRRFLLFRRAFKQLDVEAALTKALGEVDILLTWMQKFYKL | – | complete eradication of tumors and metastases
